Earlier results in patent US20240100001A1, “DENATONIUM SALT FOR USE IN PREVENTING, PREVENTING PROGRESSION AND TREATING FATTY LIVER DISEASES” (AARDVARK THERAPEUTICS INC., priority 2021, published 2024).
Like-named read-outs stand apart in the source and are kept apart here.

What was measured:
[1] = test system: AMLN model: C57BL/6J mice placed on AMLN diet for 30 weeks; details: 0.03-0.9 mg/kg for the last 4 weeks; cited from earlier work
[2] = test system: C57BL/6 male mice fed with the methionine- and choline-deficient (MCD) diet for 4 weeks; details: 5 mg/kg/day PO for the last 2 weeks; cited from earlier work
[3] = test system: A mouse model of diet-induced NASH; details: 10 mg/kg/day PO for eight weeks; cited from earlier work
[4] = test system: NAFLD/NASH; details: cited from earlier work; for benefit in NAFLD/NASH: agents tried so far
[5] = test system: patients with NASH and IGT or T2DM; details: women and men; cited from earlier work
[6] = test system: Male DIAMOND mice fed high fat sugar water diet (WDSW) for 24 weeks; details: cited from earlier work
[7] = test system: Male C57BL/6J mice fed high fat diet for 20 weeks; details: 0.3 mg/kg/day PO for 20 weeks; cited from earlier work
[8] = test system: Male C57BL/6 mice fed a fast food diet (FF diet) for 330 days; details: dose unknown, cited from earlier work
[9] = test system: Male C57BL/6J mice fed with the AMLN diet for 50 weeks; details: 30 mg/kg, PO, QD for 8 weeks; cited from earlier work
[10] = test system: Male C57BL/6 mice fed a CDAHFD diet for 20 weeks; details: cited from earlier work
[11] = test system: patients with NASH; details: cited from earlier work
[12] = test system: Male C57BL/6J mice fed with the AMLN diet for 32 weeks; details: SC for 12 weeks, Semaglutide 10 nmol/kg, cited from earlier work
[13] = test system: STAM model: Streptozotocin-injected 2-day old male C57BL/6 mice fed high-fat diet; details: 3 mg/kg, twice weekly, cited from earlier work
[14] = test system: FXR-deficient mice placed on a high-fat, high-fructose, highcholesterol diet (HFFCD) for 50 weeks; details: cited from earlier work
[15] = test system: C57BL/6 mice treated with 60% high fat diet for 36 weeks; details: 0.3-3 mg/kg/day PO for 24 days; cited from earlier work
[16] = test system: C57Bl6/J mice fed a MCD diet for 3 weeks; details: 10 or 30 mg/kg, PO, QD for 3 weeks; cited from earlier work
[17] = test system: Male C57BL/6N mice fed choline-deficient, L-amino acid-defined, high-fat diet (CDAHFD); details: cited from earlier work
[18] = test system: STAM model: Streptozotocin-injected 2-day old male C57BL/6 mice fed high-fat diet; details: cited from earlier work
[19] = test system: Male C57BL/6 mice fed a CDAHFD diet for 12 weeks; details: cited from earlier work
[20] = 30 mg/kg/day PO QD for the last 8 weeks
[21] = treatment started after FF diet induction for 240 days
[22] = ALT-801 5 or 10 nmol/kg (both doses)
[23] = SC for 2 weeks (start at Week 7)
[24] = 60 mg/kg IV twice a week for 4 weeks, early treatment cohort

In the case of O=C(O)c1cc(F)c2nc(N3[C@@H]4CC[C@H]3C[C@@H](OCc3c(-c5ccccc5OC(F)(F)F)noc3C3CC3)C4)sc2c1 [Tropifexor], the fibrosis [1] is given as “reduced”, the “hepatic inflammation cell populations” value [1] is given as “reduced mRNA” and the inflammation [1] is given as “reduced”. The “mRNA levels of fibrogenic markers” value [1] was “reduced mRNA” and the steatosis [1] was “reduced”.

In the case of CCCCCCCCCCCCCCCCCCCC(=O)N[C@H]1CC[C@@]2(C)[C@@H](C1)C[C@@H](O)[C@@H]1[C@@H]2C[C@H](O)[C@]2(C)[C@@H]([C@H](C)CCC(=O)O)CC[C@@H]12 [Aramchol], the features of steatohepatitis [2] is listed as “Reduced”, the fibrosis [2] is listed as “Reduced” and the “protein expression of COL1A1 in the liver” value [2] is listed as “decreased protein”.

For Cc1cc(OCP2(=O)OCC[C@@H](c3cccc(Cl)c3)O2)cc(C)c1Cc1ccc(O)c(C(C)C)c1 (some centres unmarked) [VK2809], the “NAS score mean improvement” value [3] is given as “score (a 40%”, the “all subcomponents of NAS (inflammation, ballooning, and steatosis)” value [3] is given as “Improvements” and the “liver content of cholesterol” value [3] is given as “improved liver”. For the same molecule, the “liver content of collagen” value [3] was “improved liver”, the “liver content of hydroxyproline” value [3] was “improved liver” and the “liver content of triglyceride” value [3] was “improved liver”. The “liver fibrosis on histopathology” value [3] was “improved NAS”, the plasma cholesterol [3] was “reduced plasma” and the plasma triglycerides [3] was “reduced plasma”.

For O=C1O[C@H]([C@@H](O)CO)C(O)=C1O [vitamin C], the “benefit in NAFLD/NASH” value [4] is given as “unsuccessfully or with only modest benefit”.

In the case of CCc1ccc(CCOc2ccc(CC3SC(=O)NC3=O)cc2)nc1 (centres unmarked) [pioglitazone], the “risk of weight gain, edema, congestive heart failure, and osteoporotic fractures” value [5] is given as “significantly increased risk”.

For COc1cccc(C(=O)COc2ccc(CC3SC(=O)NC3=O)cc2)c1 (centres unmarked) [Azemiglitazone], the ballooning ([6]; 30 mg/kg/day PO QD for the last 8 weeks (16-24 weeks)) is given as “decreased”, the “NASH CRN fibrosis score” value [6, 20] is given as “group was 0” and the “mice progressed from simple steatosis to NASH compared to the control group” value [6, 20] is given as “fewer MSDC-”. For the same molecule, the “serum level of ALT” value [6, 20] was “reduced serum”, the “serum level of AST” value [6, 20] was “reduced serum” and the “serum level of fasting insulin” value [6, 20] was “reduced serum”. For the same molecule, the “NAFLD Activity Score (NAS)” value ([6]; 30 mg/kg/day PO QD for the last 8 weeks, trended lower) was “(NAS) trended”.

For Cc1c(C)c2c(c(C)c1O)CC[C@@](C)(CCC[C@H](C)CCC[C@H](C)CCCC(C)C)O2 [vitamin E, α-tocopherol], the “benefit in NAFLD/NASH” value [4] is given as “unsuccessfully or with only modest benefit”.

For C[C@H](NC(=O)C(=O)Nc1ccccc1C(C)(C)C)C(=O)N[C@@H](CC(=O)O)C(=O)COc1c(F)c(F)cc(F)c1F [Emricasan], the HOMA-IR [7] is listed as “Decreased”, the ballooning on histopathology [7] is listed as “Improved” and the fibrosis on histopathology [7] is listed as “Improved”. The “fibrotic and inflammatory gene signature” value [7] was “Decreased”, the inflammation on histopathology [7] was “Improved” and the “serum level of ALT” value [7] was “Decreased”. For the same molecule, the “serum level of AST” value [7] was “Decreased”, the “serum level of cholesterol” value [7] was “Decreased” and the “serum level of glucose” value [7] was “Decreased”.

For Cc1cc(F)c(C(=O)Nc2cccc(-c3nncn3C(C)C)n2)cc1-n1cnc(C2CC2)c1 [Selonsertib], the Reduced liver cholesterol [8] is given as 45%, the Reduced serum cholesterol [8] is given as 14% and the serum bile acids [8] is given as “reduced serum”. For the same molecule, the serum cholate reduction [8] was “cholate (91%”, the serum deoxycholate reduction [8] was “(90% reduction)” and the fibrosis [8, 21] was “reduced liver”. The insulin resistance [8, 21] was “reduced liver” and the liver steatosis [8, 21] was “reduced liver”.

In the case of CCCCCCCCCCC[C@@H](C[C@@H]1OC(=O)[C@H]1CCCCCC)OC(=O)[C@H](CC(C)C)NC=O [orlistat], the “benefit compared to diet and exercise (weight loss alone)” value ([4]; in vivo) is listed as “no significant benefit”.

In the case of CSc1ccc(C(=O)/C=C/c2cc(C)c(OC(C)(C)C(=O)O)c(C)c2)cc1 [Elafibranor], the fibrosis severity [9] is listed as “reduced”, the “histopathological score of hepatic steatosis” value [9] is listed as “reduced” and the “histopathological score of inflammation” value [9] is listed as “reduced”.

In the case of CCO[C@@H](Cc1ccc(OCCn2c(C)ccc2-c2ccc(SC)cc2)cc1)C(=O)O [Saroglitazar], the ballooning ([10]; 3 mg/kg PO for 12 weeks) is given as “reduced or no”, the hepatic steatosis ([10]; 3 mg/kg PO for 12 weeks) is given as “reversal of” and the vacuolation ([10]; 3 mg/kg PO for 12 weeks) is given as “reduced or no”. The “Liver lipid (TG) accumulation attenuated” value ([10]; 3 mg/kg) was 79%, the “hepatic fibrogenic and inflammatory gene expression” value ([10]; 3 mg/kg) was “also reduced” and the “liver TNFα levels” value ([10]; 3 mg/kg) was “also reduced”. For the same molecule, the “liver collagen content attenuated” value ([10]; 3 mg/kg) was 41%, the “reduced serum level of ALT” value ([10]; 3 mg/kg) was “(60%), AST” and the “reduced serum level of MCP1” value ([10]; 3 mg/kg) was “MCP1 (45%)”.

In the case of semaglutide, the “percentage of patients with NASH resolution and no worsening of fibrosis” value ([11]; 0.1-mg group) is given as 40%, the “percentage of patients with NASH resolution and no worsening of fibrosis” value ([11]; 0.2-mg group) is given as 36% and the “mean percent weight loss” value ([11]; 0.4-mg group) is given as 13%. The “percentage of patients with NASH resolution and no worsening of fibrosis” value ([11]; 0.4-mg group) was 59%, the “percentage of patients with an improvement in fibrosis stage vs placebo” value ([11]; daily subcutaneous) was “did not show a significant between-group difference” and the incidence of constipation ([11]; human, in vivo) was 22%. The incidence of nausea ([11]; human, in vivo) was 42%, the incidence of vomiting ([11]; human, in vivo) was 15% and the “patients with malignant neoplasms” value ([11]; human, in vivo) was 1%. The “patients with neoplasms (benign, malignant, or unspecified)” value ([11]; human, in vivo) was 15%, the NAS overall score [12, 22] was “decreased liver” and the liver weight [12, 22] was “decreased liver”. For the same molecule, the “liver TG level” value ([12]; ALT-801 5 or 10 nmol/kg) was “decreased liver”, the “liver content of fibrosis markers” value ([12]; ALT-801 5 or 10 nmol/kg) was “decreased liver” and the “liver total cholesterol level” value ([12]; ALT-801 5 or 10 nmol/kg) was “decreased liver”. The “plasma ALT level” value ([12]; ALT-801 5 or 10 nmol/kg) was “decreased liver”.

For CC(=O)CCCCn1c(=O)c2c(ncn2C)n(C)c1=O [pentoxifylline], the “benefit in NAFLD/NASH” value [4] is listed as “unsuccessfully or with only modest benefit”.

In the case of Pegbelfermin, the “mean grade for hepatocellular ballooning” value [13, 23] is listed as “decreased”, the “mean grade for lobular inflammation” value [13, 23] is listed as “decreased” and the “mean grade for steatosis” value [13, 23] is listed as “decreased”. The “decrease of mean serum fibrosis biomarker Pro-C3” value ([13]; SC for 2 weeks) was “C3 by 44%”, the liver triglycerides ([13]; SC for 2 weeks) was “improved” and the liver/body weight ratio ([13]; SC for 2 weeks) was “(−20%), as well”. For the same molecule, the plasma triglycerides ([13]; SC for 2 weeks) was “improved” and the whole blood glucose ([13]; SC for 2 weeks) was “glucose (−30%),”.

In the case of Aldafermin, the “hepatic expression of inflammatory and fibrotic biomarkers” value ([14]; delivered by AAV at Week 16) is given as “decreased”, the hepatocellular fibrosis ([14]; delivered by AAV at Week 16) is given as “reduced” and the “serum level of ALT” value ([14]; delivered by AAV at Week 16) is given as “reduced serum”. For the same molecule, the “serum level of AST” value ([14]; delivered by AAV at Week 16) was “reduced serum”, the spleen weight ([14]; delivered by AAV at Week 16) was “reduced liver” and the steatosis ([14]; delivered by AAV at Week 16) was “not impact”. For the same molecule, the liver weight ([14]; delivered by adeno-associated viral vector (AAV) at Week 16) was “reduced liver”.

In the case of CC(C)c1cc(Oc2c(Cl)cc(-n3nc(C#N)c(=O)[nH]c3=O)cc2Cl)n[nH]c1=O [Resmetirom], the “fibrosis in treated livers” value [15] is given as “No detectable”, the “inflammation in treated livers” value [15] is given as “No detectable” and the insulin sensitivity [15] is given as “Improved”. The “reduced serum level of ALT” value [15] was “(46%), free”, the “reduced serum level of cholesterol” value [15] was “(67%)” and the “steatosis in treated livers” value [15] was “No detectable”.

In the case of O=C(O)CCCc1cc2cc(Cl)ccc2n1S(=O)(=O)c1ccc2ncsc2c1 [Lanifibranor], the inflammation on histopathology [16] is given as “prevented”, the liver triglyceride levels [16] is given as “decreased” and the “plasma alanine aminotransferase levels” value [16] is given as “reduced plasma”. For the same molecule, the serum triglyceride levels [16] was “decreased” and the steatosis on histopathology [16] was “prevented”.

In the case of CCCCOCCOc1ccc(-c2ccc3c(c2)/C=C(/C(=O)Nc2ccc([S@@+]([O-])Cc4cncn4CCC)cc2)CCCN3CC(C)C)cc1 [Cenicriviroc], the “intrahepatic accumulation of inflammatory macrophages” value ([17]; 30 mg/kg/day for 4 or 14 weeks) is listed as “Inhibited” and the fibrosis on histopathology ([17]; only with 30 mg/kg/day for 14 weeks, IP) is listed as “improved”.

In the case of Belapectin, the “expression of pathological indicators including iNOS, CD36, and a-smooth muscle actin” value ([18]; 60 mg/kg IV twice a week for 4 weeks) is given as “reduced the”, the fat deposition ([18]; 60 mg/kg IV twice a week for 4 weeks, early treatment cohort (from Week 6)) is given as “Decreased fat” and the hepatocellular ballooning [18, 24] is given as “Decreased fat”. The inflammatory infiltrate [18, 24] was “Decreased fat”, the NAS score ([18]; early treatment cohort (from Week 6), significant) was “improved NAS” and the “NAS versus vehicle control” value ([18]; late treatment cohort (from Week 9), did not reach significance) was “improvement”.

For CC[C@H]1[C@@H](O)[C@@H]2[C@H](CC[C@]3(C)[C@@H]([C@H](C)CCNC(=O)NS(=O)(=O)c4ccc(C(C)(C)C)cc4)CC[C@@H]23)[C@@]2(C)CC[C@@H](O)C[C@@H]12 [EDP-305], the fibrogenic gene expression ([19]; High dose (30 mg/kg)) is listed as “decreased” and the “fibrosis progression on histopathology” value ([19]; High-dose (30 mg/kg) daily PO from the beginning of week 6) is listed as “mg/kg) halted”.
